Data on 5 compounds can be found in publication PMC9860313 (2022).

The test system of experiment [1] is stabilized aptamer (RNA, aptamer) GGCGAUACCAGCCGAAAGGCCCUUGGCAGCGCC
Description: X-ray crystallography. Conditions: 30 mM NaCl, 5 mM MgCl2, 5 mM HEPES pH 7.5, 0.4 mM RNA, 1 mM ligand.

In experiment [2] the test system is aptamer-F (theophylline aptamer) (RNA, aptamer) GGCGAUACCAGCCGAAAGGCCCUUGGCAGCGUC
Briefly: fluorescence strand invasion assay. Conditions: 10 mM NaCl, 5 mM MgCl2; 20 mM HEPES pH 7.5, 0.01% Tween-20; 37°C; inhibits invasion by BBQ-650 2'-F quencher strand (Q-invader); apparent.

Experiment [3] relates to aptamer-B (theophylline aptamer) (RNA, aptamer, 3'-terminal (A)10 spacer is DNA (positions 34-43)) GGCGAUACCAGCCGAAAGGCCCUUGGCAGCGUC
Description: surface plasmon resonance. The conditions noted are these: 150 mM NaCl, 5 mM MgCl2; 10 mM HEPES pH 7.4, 0.01-0.1% DMSO, 25°C.

In experiment [4] the test system is pentaloop aptamer (RNA, aptamer) GGCGAUACCAGCGAAACACGCCCUUGGCAGCGUC
Briefly: X-ray crystallography, soaked crystal. The conditions noted are these: 30 mM KCl, 10 mM MgCl2 (RNA refolding); Fab-RNA crystals soaked in 1.1 mM TAL2, 1 h; ligand not precisely placed.

The subject of experiment [5] is mutant aptamer-B (U24C) (RNA, aptamer, 3'-terminal (A)10 spacer is DNA (positions 34-43)) GGCGAUACCAGCCGAAAGGCCCUCGGCAGCGUC
Description: surface plasmon resonance. The conditions noted are these: 150 mM NaCl, 5 mM MgCl2; 10 mM HEPES pH 7.4, 0.01-0.1% DMSO, 25°C; highest concentration 0.1-2.0 µM.

Setting [6] is: crystals from cacodylate pH 6.5, PEG 8K, MPD.

For `COc1cc2c(O)ncnc2cc1OCC1CCN(C)CC1`, in experiment [1] (setting [6]), the binding result is “yes”. In addition, the 50% inhibitory concentration (IC50) in experiment [2] amounted to 1160 nM. This compound yielded a Kd in experiment [3] of 23 nM.
`COc1cc2c(O)ncnc2cc1OCCCN1CCCCC1`: the binding result in experiment [1] (setting [6]) and in experiment [4] was “yes” throughout. In experiment [2], the IC50 stood at 700 nM. In experiment [3], the Kd was found to be 9.1 nM.
In the case of `COc1cc2ncnc(N3CCN(CCCCO)CC3)c2cc1OC`, the binding entry in experiment [1] (setting [6]) is reported as “yes”. In addition, the IC50 in experiment [2] was 1920 nM. For the same compound, the Kd in experiment [3] was 280 nM.
For the compound `Cn1c(=O)c2[nH]cnc2n(C)c1=O`, the binding entry was “no” in experiment [5] and “yes” in experiment [1] (setting [6]). For the same compound, in experiment [2], the concentration for half-maximal inhibition (IC50) was 1990 nM. The compound further showed a Kd in experiment [3] of 670 nM.
For `Cn1c(=O)cnc2c(N)nc(=O)[nH]c21`, the binding entry in experiment [1] (0.2 M Ca(OAc)2 in reservoir, crystals from PEG 3350, 20°C) is on record as “yes”. Moreover, the IC50 in experiment [2] was 460 nM. This compound also yielded a Kd in experiment [3] of 2 nM.
